Measurements reported in the OPERA property sets (Mansouri et al. 2018).
Converted amounts (≈) assume the structure as drawn.

Conditions: not given

Row | solubility [mM] | Compound
1 | 1500 (≈ 333000 µg/mL) | O=C(NCN1CCOCC1)c1cnccn1
2 | 811 (≈ 250000 µg/mL) | COc1cc(O)c(C(=O)c2ccccc2)cc1S(=O)(=O)O
3 | 396 (≈ 100000 µg/mL) | OC[C@H]1O[C@@H](n2cnc3cncnc32)[C@H](O)[C@@H]1O
4 | 24.5 (≈ 5000 µg/mL) | CCCCOC(=O)C=Cc1ccccc1
5 | 2 (≈ 500 µg/mL) | CCOCCOC(=O)C=Cc1ccc(OC)cc1

Row | Compound | solubility [mM]
6 | C=C1C=CC(=O)O1 | 104 (≈ 10000 µg/mL)
7 | O=C(O)CCC(=O)OOC(=O)CCC(=O)O | 142 (≈ 33300 µg/mL)
8 | C#CC(C)(CC)OC(N)=O (stereo not given) | 113 (≈ 16000 µg/mL)

Same assay, conditions: 22 °C

Row | solubility [mM] | Compound
9 | 4.78 (≈ 3000 µg/mL) | CC(=O)NCc1c(I)c(NC(C)=O)c(I)c(C(=O)O)c1I

Same assay, conditions: 25 °C

Row | solubility [mM] | Compound
10 | 4.77 (≈ 1500 µg/mL) | Nc1ccc(S(=O)(=O)Nc2ccnn2-c2ccccc2)cc1
11 | 0.00751 (≈ 4 µg/mL) | CC(C)(C)CC(=O)OCC(=O)[C@@]12OC(C)(C)O[C@@H]1C[C@H]1[C@@H]3CCC4=CC(=O)C=C[C@]4(C)[C@@]3(F)[C@@H](O)C[C@@]12C
12 | 0.207 (≈ 50 µg/mL) | O=C(N/N=C/c1ccccc1O)c1ccncc1
13 | 10.7 (≈ 2000 µg/mL) | NCCNc1cccc2ccccc12
14 | 5.77 (≈ 1000 µg/mL) | O=Nc1c(O)ccc2ccccc12

Row | Compound | solubility [mM]
15 | O=NN(CCCl)C(=O)NCCCl | 18.7 (≈ 4000 µg/mL)
